The values that follow come from patent US6673625B2, “Saccharide sensing molecules having enhanced fluorescent properties” (The Regents of the University of California, priority 1999, dated 2004).

Data set [1] can be described thus: Glucose sensitivity testing of chloro-oxazine-one boronate (COB). The note with it: glucose zero to 600 mg/dL; 66% MeOH/buffer pH 7.4; 450/560 nm. As for the experimental part: To investigate the conjugated organic heterocyclic ring system compounds as fluorophores, an oxazine-one system was studied. An oxazine-one is described as a neutral (uncharged) precursor to a charged oxazine dye. The relevant values for the COB system for the Rehm-Weller equation are: ΔGPET=−12.1 kcal/mole, E^0(Z^ox)=0.88V, E^0(F^red)=−1.10V, and ΔE00=57.8 kcal/mole. The compound's response to glucose in several solvent systems was characterized. A stock solution of the compound was prepared by dissolving 5.7 mg in 5 mL of methanol. Samples were prepared by adding 30 μL of this stock solution to 3 mL of solvent.
Glucose sensitivity testing was performed on the oxazine-one compound. Samples were prepared as described above and titrated with 30 μL aliquots of concentrated glucose solution (300 mg/mL). […] Following an initial period in which the baseline fluorescence level was determined, four 30 μL aliquots of glucose were introduced into the sample resulting in a final glucose concentration of approximately 1200 mg/dL. In this solvent system, glucose transduction yields a 45% increase in the fluorescence intensity as the glucose concentration is increased from zero to 600 mg/dL.
COB's response was evaluated in several solvent systems. […]
Based on these spectra, excitation and emission wavelengths of 450 nm and 560 nm, respectively, were chosen for subsequent steady-state fluorescence tests. […]

A short description of data set [2]: Cyclic voltammetry (glassy carbon, Ag/AgCl reference, 0.1 M NBu4ClO4 in acetonitrile). In kind it is physicochemical. As for the experimental part: Samples for FT IR spectroscopy were prepared as solutions in CHCl3, and only the C═O stretches are reported. Unless otherwise stated, all NMR spectra were recorded at 500 MHz for ^1H and 125 MHz for ^13C at 20-25° C. using CDCl3 as the solvent. Unless stated otherwise, mass spectra were obtained using electrospray ionization (50 V) with a 50/50 methanol/water solvent mixture with ^1% acetic acid added. Cyclic voltammetry was conducted using a glassy carbon working electrode, platinum counter electrode, and Ag/AgCl reference electrode and carried out in a 0.1 M solution of NBu4ClO4 in acetonitrile.
Summarized Syntheses. As the syntheses are described as a series of analogous compounds with general procedures are given below. Cyclic voltammetry was conducted using a glassy carbon working electrode, platinum counter electrode, and Ag/AgCl reference electrode and carried out in a 0.1 M solution of NBu4ClO4 in acetonitrile. Samples for fluorescence were prepared as 1.00 mM stock solutions in MeOH. A 30.0 μL aliquot of solution was then added to 3.000 mL of the appropriate solvent mixture (a combination of methanol and phosphate buffered saline—PBS). Relative quantum yields were determined by the relative output of equimolar solutions of two compounds using 3ay as a reference. Glucose additions were performed by the addition of a concentrated solution of glucose in PBS to a stirred solution of the fluorescent molecule in methanol/PBS.
General. All reactions were performed under an atmosphere of N2, followed by work-up in air. Protected boronate esters were stored under vacuum to prevent slow hydrolysis from atmospheric moisture. Unless stated otherwise, all chemicals were purchased from commercial suppliers. Anhydrous solvents from Aldrich were used for all reactions. Starting compounds known in the art such as N-n-butyl-4-chloronaphthalene-1,8-dicarboximide(1ax), 2,2-dimethylpropane-1,3-diyl[o-(bromomethyl) phenyl]boronate, were prepared by literature methods (see e.g. Daffy et al. Chem-Eur J 1998, 4, 1810-1815; de Silva et al., Chem Rev 1997, 97, 1515-1566). Samples for FT IR spectroscopy were prepared as solutions in CHCl3, and only the C═O stretches are reported here. All mass spectra were obtained using electrospray ionization (ESI/MS) with an ionization potential of 50V and a solvent system consisting of 1% acetic acid in 50/50 methanol/water. Cyclic voltammetry was conducted using a glassy carbon working electrode, platinum counter electrode, and Ag/AgCl reference electrode and carried out in a 0.1 M solution of NBu4ClO4 in acetonitrile. Samples for fluorescence measurements were prepared as 1.00 mM stock solutions in MeOH. A 30.0 μL aliquot of solution was then added to 3.000 mL of the appropriate solvent mixture (a combination of methanol and phosphate buffered saline—PBS) giving a final concentration of 10.0 μM for each complex. Changes in pH were carried out by the addition of small volumes of concentrated hydrochloric acid, acetic acid, or sodium hydroxide. Glucose additions were performed by the addition of a concentrated solution of glucose in PBS to a stirred solution of fluorophore in a cuvette. Relative quantum yield measurements were carried out by measuring the relative intensities of equimolar solutions (10.0 μM) of two fluorophores. Compound 3ay was used as the reference.

Data set [3] in a line: Rehm-Weller estimate of free energy of photoinduced electron transfer (PET). In kind it is physicochemical. The text has this: The search for new fluorescent glucose transducers based on photoelectron transfer (PET) requires, among other things, an understanding of the electrochemistry of any potential donor-acceptor pair. The free energy of PET (ΔGel) can be calculated using the Rehm-Weller equation shown below:
ΔGel(kcal mol^−1)=23.06[E^0(D^+/D)−E^0(A/A^−)]−wp−wr−ΔG00 where E^0(D^+/D) is the oxidation potential of the donor, E^0(A/A^−) is the reduction potential of the acceptor, and ΔG00 is the free energy corresponding to the equilibrium energy E00 (see e.g. Kavarnos, G. J. In Fundamentals of photoinduced electron transfer, VCH Publishers: New York, N.Y., 1993; p Chapter 1 and Rehm and Weller, Ist. J. Chem. 1970, 8, 259). The quantities wp and wr are Coulombic terms for the products and reactants, and ate found to be small in polar solvents. To simplify predictions, we assume wp and wr to be zero, and estimate E00 as the energy corresponding to [λmax(ex)+λmax(em)]/2 for each fluorophore.
ΔGPET=23.06[E^0(Z^oxidation)−E^0(F^reduction)]−ΔE00],
The electrochemical potentials can be measured using the individual molecular groups before assembling the complete molecule.
Electrochemistry. The search for new fluorescent glucose transducers based on PET requires, among other things, an understanding of the electrochemistry of any potential donor-acceptor pair. The free energy of PET (ΔGel) can be calculated using the Rehm-Weller equation shown in eq 1, where E^0(D^+/D) is the oxidation potential of the […]
ΔGe(kcal mol^−1)=23.06[E^0(D^+/D)−E^0(A/A^−)]−wp−wr−ΔG00 (1) donor, E^0(A/A^−) is the reduction potential of the acceptor, and ΔG00 is the free energy corresponding to the equilibrium energy E00. The quantities wp and wr are Coulombic terms for the products and reactants, and are found to be small in polar solvents. In our case, wr=0 since the reactants are neutral. To simplify predictions, we assume wp to be zero and estimate E00 as the energy corresponding to [λmax(ex)+λmax(em)]/2 for each fluorophore. […]
it is possible to estimate the free energy of photoinduced electron transfer (PET) in these systems (see e.g. Kavamos, G. J. Fundamentals of Photoinduced Electron Transfer, VCH: New York, 1993; pp 37-40). E0(D^+/D) and E^0(A/A^−) correspond to the […] of the electron donor (i.e. amine) and electron acceptor (i.e. fluorophore), respectively. The quantity ΔG00, is the equilibrium energy, which we estimate as the energy corresponding to the equilibrium wavelength λ00. As an estimate of λ00, we use the average of the excitation and emission maxima for each fluorophore. Smaller solvent-dependent work terms for the Coulombic interaction between the reactants and products are left out for simplicity. Since the mechanism of fluorescence switching in these systems depends on PET, this gives us a rough estimate of which fluorophores should give the best response to glucose.

Consider “6-chloro-5H-benzo[a]phenoxazin-5-one boronate [COB]”, for which the “increase in the fluorescence intensity” value in data set [1] worked out at 45%. Further, in data set [2], the “E^0(F^red), reduction potential of the fluorophore” value is −1.10 V and the “E^0(Z^ox), oxidation potential of the switch” value was determined as 0.88 V. Besides, the “ΔE00, energy of the excited state fluorophore” value in data set [3] was 57.8 kcal/mol. Moreover, the ΔGPET in data set [3] (simplified Rehm-Weller equation) is -12.1 kcal/mol.
